This note sets out measurements from patent US10689377B2 (Mirati Therapeutics, Inc., priority 2017, dated 2020).

Where a name gives a salt, the structure may show the parent alone.

For orientation: IC50 means the concentration that inhibits the measured activity by half.

For the assay, the target named is KRas G12C (Homo sapiens, UniProt P01116, G12C). Nature of the assay: Cellular inhibition of KRas G12C measured by Phospho-ERK in NCI-H358 cells. In kind it is cell-based. The settings on record: pERK(Thr202/Tyr204) normalized with GAPDH, NCI-H358 cells, 3 hours; read-out: IC50. The method, boiled down: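 NCI-H358 cells treated 3 h with compound (0.5% DMSO final), then fixed and methanol-permeabilised. In-cell immunofluorescence measured pERK(Thr202/Tyr204) normalised to GAPDH as percent of DMSO control. IC50 from a 4-parameter dose-response fit.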
Sequence of KRas G12C (P01116 1-188 isoform P01116-2 G12C): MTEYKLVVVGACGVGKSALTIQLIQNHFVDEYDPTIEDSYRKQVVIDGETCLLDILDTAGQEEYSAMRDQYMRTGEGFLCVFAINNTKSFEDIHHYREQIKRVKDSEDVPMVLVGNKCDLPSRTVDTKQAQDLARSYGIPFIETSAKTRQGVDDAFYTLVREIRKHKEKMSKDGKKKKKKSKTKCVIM
Consider `CC#CC(=O)N1CCN(c2nc(OC[C@@H]3CCCN3C)nc3c2CCN(c2cccc4cccc(Cl)c24)C3)C[C@@H]1CC#N` [Example 391, 2-((S)-1-(but-2-ynoyl)-4-(7-(8-chloronaphthalen-1-yl)-2-(((S)-1-methylpyrrolidin-2-yl)methoxy)-5,6,7,8-tetrahydropyrido[3,4-d]pyrimidin-4-yl)piperazin-2-yl)acetonitrile], for which the 50% inhibitory concentration (IC50) was 0.1 to 1000 nM.
`C=CC(=O)N1CCN(c2nc(OC[C@@H]3CCCN3C)nc3c2CCN(c2ccc(F)cc2C(F)(F)F)C3)CC1CC#N` (some centres unmarked) [Example 276]: the half-maximal inhibitory concentration (IC50) lay within 0.1 to 1000 nM.
With `C=CC(=O)N1CCN(c2nc(O[C@H](CC)CN(C)C)nc3c2CCN(c2cc(O)cc4ccccc24)C3)CC1` [Example 60, (R)-1-(4-(2-((1-(dimethylamino)butan-2-yl)oxy)-7-(3-hydroxynaphthalen-1-yl)-5,6,7,8-tetrahydropyrido[3,4-d]pyrimidin-4-yl)piperazin-1-yl)prop-2-en-1-one] the figure was more than 1000 nM; with `C=CC(=O)N1CCN(c2nc(OC[C@H]3CN(C)CCO3)nc3c2CCN(c2cccc4ccccc24)C3)C[C@@H]1CC#N` [Example 450, 2-((S)-1-Acryloyl-4-(2-(((R)-4-methylmorpholin-2-yl)methoxy)-7-(naphthalen-1-yl)-5,6,7,8-tetrahydropyrido[3,4-d]pyrimidin-4-yl)piperazin-2-yl)acetonitrile], 0.1 to 1000 nM; with `C=C(F)C(=O)N1CCN(c2nc(OC[C@@H]3[C@H](O)CC(=O)N3C)nc3c2CCN(c2cccc4cccc(C)c24)C3)C[C@@H]1CC#N` [Example 570, 2-[(2S)-1-(2-Fluoroprop-2-enoyl)-4-[2-[[(2R,3R)-3-hydroxy-1-methyl-5-oxo-pyrrolidin-2-yl]methoxy]-7-(8-methyl-1-naphthyl)-6,8-dihydro-5H-pyrido[3,4-d]pyrimidin-4-yl]piperazin-2-yl]acetonitrile], more than 1000 nM.
In the case of `C=CC(=O)N1CCN(c2nc(OC[C@@H]3C[C@@H](OC)CN3C)nc3c2CCN(c2cccc4ccccc24)C3)CC1CC#N` (stereo partly drawn) [Example 268, 2-(1-acryloyl-4-(2-(((2S,4R)-4-methoxy-1-methylpyrrolidin-2-yl)methoxy)-7-(naphthalen-1-yl)-5,6,7,8-tetrahydropyrido[3,4-d]pyrimidin-4-yl)piperazin-2-yl)acetonitrile], the IC50 lay within 0.1 to 1000 nM.
The same measure for `C=CC(=O)N1CCN(c2nc(OC[C@@H]3CCCN3C)nc3c2CCN(c2cccc4ccccc24)C3)[C@@H](C#N)C1` [Example 465, (R)-4-acryloyl-1-(2-(((S)-1-methylpyrrolidin-2-yl)methoxy)-7-(naphthalen-1-yl)-5,6,7,8-tetrahydropyrido[3,4-d]pyrimidin-4-yl)piperazine-2-carbonitrile]: more than 1000 nM.
With `C=CC(=O)N1CCN(c2nc(OC[C@H]3CCC(C)(C)N3)nc3c2CCN(c2cc(O)cc4ccccc24)C3)CC1` [Example 174, (R)-1-(4-(2-((5,5-dimethylpyrrolidin-2-yl)methoxy)-7-(3-hydroxynaphthalen-1-yl)-5,6,7,8-tetrahydropyrido[3,4-d]pyrimidin-4-yl)piperazin-1-yl)prop-2-en-1-one] the figure was more than 1000 nM.
The same measure for `C=CC(=O)N1CCN(c2nc(OC[C@@H]3C[C@@H](F)CN3C)nc3c2CCN(c2cccc(C)c2C)C3)C[C@@H]1CC#N` [Example 437, 2-((S)-1-acryloyl-4-(7-(2,3-dimethylphenyl)-2-(((2S,4R)-4-fluoro-1-methylpyrrolidin-2-yl)methoxy)-5,6,7,8-tetrahydropyrido[3,4-d]pyrimidin-4-yl)piperazin-2-yl)acetonitrile]: 0.1 to 1000 nM; for `C=CC(=O)N1CCN(c2nc(O[C@H](C)[C@H]3CCCN3C)nc3c2CCN(c2cc(O)cc4ccccc24)C3)CC1` [Example 129, 1-[4-[7-(3-hydroxy-1-naphthyl)-2-[(1R)-1-[(2R)-1-methylpyrrolidin-2-yl]ethoxy]-6,8-dihydro-5H-pyrido[3,4-d]pyrimidin-4-yl]piperazin-1-yl]prop-2-en-1-one]: 0.1 to 1000 nM.
`CC#CC(=O)N1CCN(c2nc(OC[C@@H]3CCCN3C)nc3c2CCN(c2cccc(C)c2C)C3)C[C@@H]1CC#N` [Example 389, 2-((S)-1-(but-2-ynoyl)-4-(7-(2,3-dimethylphenyl)-2-(((S)-1-methylpyrrolidin-2-yl)methoxy)-5,6,7,8-tetrahydropyrido[3,4-d]pyrimidin-4-yl)piperazin-2-yl)acetonitrile]: the IC50 is more than 1000 nM.
Regarding `C=CC(=O)N1CCN(c2nc(OCC(O)CN3CCOCC3)nc3c2CCN(c2cc(O)cc4ccccc24)C3)CC1` (centres unmarked) [Example 123, 1-(4-(2-(2-hydroxy-3-morpholinopropoxy)-7-(3-hydroxynaphthalen-1-yl)-5,6,7,8-tetrahydropyrido[3,4-d]pyrimidin-4-yl)piperazin-1-yl)prop-2-en-1-one], the half-inhibitory concentration (IC50) was more than 1000 nM.
With `C=CC(=O)N1CCN(c2nc(OC[C@@H]3CCCN3C)nc3c2CCN(c2ccccc2C(F)(F)F)C3)C[C@@H]1CC#N` [Example 237, 2-((S)-1-acryloyl-4-(2-(((S)-1-methylpyrrolidin-2-yl)methoxy)-7-(2-(trifluoromethyl)phenyl)-5,6,7,8-tetrahydropyrido [3,4-d]pyrimidin-4-yl)piperazin-2-yl)acetonitrile 2,2,2-trifluoroacetate] the figure was 0.1 to 1000 nM.
The same measure for `C=CC(=O)N1CCN(c2nc(OCCN3CCC(F)C3)nc3c2CCN(c2cc(O)cc4ccccc24)C3)CC1` (centres unmarked) [Example 49, 1-(4-(2-(2-(3-fluoropyrrolidin-1-yl)ethoxy)-7-(3-hydroxynaphthalen-1-yl)-5,6,7,8-tetrahydropyrido[3,4-d]pyrimidin-4-yl)piperazin-1-yl)prop-2-en-1-one]: more than 1000 nM.
With `C=CC(=O)N1CCN(c2nc(OC3CCN(C)CC3)nc3c2CCN(c2cc(O)cc4ccccc24)C3)CC1` [Example 22, 1-(4-(7-(3-hydroxynaphthalen-1-yl)-2-((1-methylpiperidin-4-yl)oxy)-5,6,7,8-tetrahydropyrido[3,4-d]pyrimidin-4-yl)piperazin-1-yl)prop-2-en-1-one], the IC50 is more than 1000 nM.
Turning to `C=CC(=O)N1CCN(c2nc(OCC3CCCN(C)C3)nc3c2CCN(c2cc(O)cc4ccccc24)C3)CC1` (centres unmarked) [Example 72], the half-inhibitory concentration (IC50) was in the range of 0.1 to 1000 nM.
As for `Cc1cccc2cccc(N3CCc4c(nc(OC[C@@H]5CCCN5C)nc4N4CCN(C(=O)/C=C/c5ccccn5)[C@@H](CC#N)C4)C3)c12` [Example 493, 2-((S)-4-(7-(8-methylnaphthalen-1-yl)-2-(((S)-1-methylpyrrolidin-2-yl)methoxy)-5,6,7,8-tetrahydropyrido[3,4-d]pyrimidin-4-yl)-1-((E)-3-(pyridin-2-yl)acryloyl)piperazin-2-yl)acetonitrile], the IC50 lay in the range of 0.1 to 1000 nM.
With `C=CC(=O)N1CCN(c2nc(OCCCN3CCCOCC3)nc3c2CCN(c2cc(O)cc4ccccc24)C3)CC1` [Example 101, 1-(4-(2-(3-(1,4-oxazepan-4-yl)propoxy)-7-(3-hydroxynaphthalen-1-yl)-5,6,7,8-tetrahydropyrido[3,4-d]pyrimidin-4-yl)piperazin-1-yl)prop-2-en-1-one] the figure was 0.1 to 1000 nM; with `Cc1cccc(N2CCc3c(nc(OC[C@@H]4C[C@@H](F)CN4C)nc3N3CCN(C(=O)/C=C/CN(C)C)[C@@H](CC#N)C3)C2)c1C` [Example 438, 2-((S)-1-((E)-4-(dimethylamino)but-2-enoyl)-4-(7-(2,3-dimethylphenyl)-2-(((2S,4R)-4-fluoro-1-methylpyrrolidin-2-yl)methoxy)-5,6,7,8-tetrahydropyrido[3,4-d]pyrimidin-4-yl)piperazin-2-yl)acetonitrile], 0.1 to 1000 nM; with `C=CC(=O)N1CCN(c2nc(OC[C@@H]3CCCN3C)nc3c2CCN(c2cccc4ccccc24)C3)[C@H](C)C1` [Example 353, 1-[(3R)-3-methyl-4-[2-[[(2S)-1-methylpyrrolidin-2-yl]methoxy]-7-(1-naphthyl)-6,8-dihydro-5H-pyrido[3,4-d]pyrimidin-4-yl]piperazin-1-yl]prop-2-en-1-one], more than 1000 nM.
`C=CC(=O)N1CCN(c2nc(OCCNC(C)=O)nc3c2CCN(c2cc(O)cc4ccccc24)C3)CC1` [Example 59, N-(2-((4-(4-acryloylpiperazin-1-yl)-7-(3-hydroxynaphthalen-1-yl)-5,6,7,8-tetrahydropyrido[3,4-d]pyrimidin-2-yl)oxy)ethyl)acetamide]: the concentration for half-maximal inhibition (IC50) was more than 1000 nM.
Turning to `C=CC(=O)N1CCN(c2nc(OCCc3ccccn3)nc3c2CCN(c2cc(O)cc4ccccc24)C3)CC1` [Example 126, 1-(4-(7-(3-hydroxynaphthalen-1-yl)-2-(2-(pyridin-2-yl)ethoxy)-5,6,7,8-tetrahydropyrido[3,4-d]pyrimidin-4-yl)piperazin-1-yl)prop-2-en-1-one trifluoroacetate], the concentration for half-maximal inhibition (IC50) is more than 1000 nM.
With `C=CC(=O)N1CCN(c2nc(OC[C@@H]3CCCN3C)nc3c2CCN(c2cccc4ccccc24)C3)C[C@H]1C` [Example 201, 1-((R)-2-methyl-4-(2-(((S)-1-methylpyrrolidin-2-yl)methoxy)-7-(naphthalen-1-yl)-5,6,7,8-tetrahydropyrido[3,4-d]pyrimidin-4-yl)piperazin-1-yl)prop-2-en-1-one] the figure was more than 1000 nM; with `C=CC(=O)N1CCN(c2nc(OCCO)nc3c2CCN(c2cc(O)cc4ccccc24)C3)CC1` [Example 142, 1-[4-[2-(2-hydroxyethoxy)-7-(3-hydroxy-1-naphthyl)-6,8-dihydro-5H-pyrido[3,4-d]pyrimidin-4-yl]piperazin-1-yl]prop-2-en-1-one], more than 1000 nM; with `C=CC(=O)N1CCN(c2nc(N3CCC(N(C)C)CC3)nc3c2CCN(c2cc(O)cc4ccccc24)C3)CC1` [Example 17, 1-(4-(2-(4-(dimethylamino)piperidin-1-yl)-7-(3-hydroxynaphthalen-1-yl)-5,6,7,8-tetrahydropyrido[3,4-d]pyrimidin-4-yl)piperazin-1-yl)prop-2-en-1-one], more than 1000 nM.
With `C=CC(=O)N1CCN(c2nc(OC[C@@H]3CCCN3C)nc3c2CCN(c2c(C)ccc4cn[nH]c24)C3)CC1CC#N` (some centres unmarked) [Example 238] the figure was 0.1 to 1000 nM.
